These results are taken from patent publication US8658604B2, “Template-fixed beta-hairpin peptidomimetics with protease inhibitory activity” (Polyphor Ltd, priority 2005, dated 2014).

Where a SMILES comes first, the peptide text is derived from it.

For the test, the target named is T1, Elastase from human neutrophils (Homo sapiens, UniProt P08246).
T1 sequence (P08246 30-267): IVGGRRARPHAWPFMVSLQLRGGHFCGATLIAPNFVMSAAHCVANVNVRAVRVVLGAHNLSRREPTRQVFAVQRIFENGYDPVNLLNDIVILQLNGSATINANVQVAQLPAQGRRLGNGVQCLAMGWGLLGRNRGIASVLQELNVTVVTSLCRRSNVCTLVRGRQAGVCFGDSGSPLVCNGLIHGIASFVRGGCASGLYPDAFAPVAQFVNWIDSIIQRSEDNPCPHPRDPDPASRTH
Briefly: Enzymatic assay, elastase. The following applies: Elastase IC50.

With `CCCC[C@@H]1NC(=O)[C@@H]2CCCN2C(=O)[C@H]2CCCN2C(=O)[C@H](Cc2ccc(O)cc2)NC(=O)[C@@H]2CSSC[C@H](NC1=O)C(=O)N[C@@H]([C@@H](C)O)C(=O)N[C@@H]([C@@H](C)O)C(=O)N[C@@H](CO)C(=O)N[C@@H]([C@@H](C)CC)C(=O)N1CCC[C@H]1C(=O)N1CCC[C@H]1C(=O)N[C@@H](Cc1ccc(O)cc1)C(=O)N2` [Ex. 77] (HELM PEPTIDE1{[Nle].C.T.T.S.I.P.P.Y.C.Y.[dP].P}$PEPTIDE1,PEPTIDE1,2:R3-10:R3|PEPTIDE1,PEPTIDE1,1:R1-13:R2$$$V2.0), the 50% inhibitory concentration (IC50) (commonly the concentration that inhibits the measured activity by half) stood at 0.068 µM. That is a double-digit nanomolar value. The same measure for `CCCC[C@@H]1NC(=O)[C@H]([C@@H](C)O)NC(=O)[C@@H]([C@H](C)O)NC(=O)[C@H](Cc2ccc(O)cc2)NC(=O)[C@@H]2CSSC[C@H](NC1=O)C(=O)N[C@@H]([C@@H](C)O)C(=O)N[C@@H](C)C(=O)N[C@@H](CO)C(=O)N[C@@H]([C@@H](C)CC)C(=O)N1CCC[C@H]1C(=O)N1CCC[C@H]1C(=O)N[C@@H](CCC(N)=O)C(=O)N2` [Ex. 126] (HELM PEPTIDE1{A.S.I.P.P.Q.C.Y.[dT].T.[Nle].C.T}$PEPTIDE1,PEPTIDE1,7:R3-12:R3|PEPTIDE1,PEPTIDE1,1:R1-13:R2$$$V2.0): 0.036 µM; for `CCCC[C@@H]1NC(=O)[C@@H]2CCCN2C(=O)[C@H]2CCCN2C(=O)[C@H](Cc2ccc(O)cc2)NC(=O)[C@@H]2CSSC[C@H](NC1=O)C(=O)N[C@@H]([C@@H](C)O)C(=O)N[C@@H](C)C(=O)N[C@@H](CO)C(=O)N[C@@H](CC(C)C)C(=O)N1CCC[C@H]1C(=O)N1CCC[C@H]1C(=O)N[C@@H](Cc1ccc(O)cc1)C(=O)N2` [Ex. 113] (HELM PEPTIDE1{[Nle].C.T.A.S.L.P.P.Y.C.Y.[dP].P}$PEPTIDE1,PEPTIDE1,2:R3-10:R3|PEPTIDE1,PEPTIDE1,1:R1-13:R2$$$V2.0): 0.035 µM. For `CCCCCCCC[C@@H]1NC(=O)[C@@H]2CCCN2C(=O)[C@H]2CCCN2C(=O)[C@H](Cc2ccc(O)cc2)NC(=O)[C@H](CCC(N)=O)NC(=O)[C@H](CCC(N)=O)NC(=O)[C@@H]2CCCN2C(=O)[C@@H]2CCCN2C(=O)[C@H]([C@@H](C)CC)NC(=O)[C@H](CO)NC(=O)[C@H](C)NC(=O)[C@H]([C@@H](C)O)NC(=O)[C@H]([C@@H](C)O)NC1=O` [Ex. 147] (HELM PEPTIDE1{[CCCCCCCC[C@H](N[*:1])C(=O)[*:2]].T.T.A.S.I.P.P.Q.Q.Y.[dP].P}$PEPTIDE1,PEPTIDE1,1:R1-13:R2$$$V2.0) the value was 0.011 µM. The same measure for `CCCC[C@@H]1NC(=O)[C@H](CCC(N)=O)NC(=O)[C@H]2CCCN2C(=O)[C@H](CCC(N)=O)NC(=O)[C@@H]2CSSC[C@H](NC1=O)C(=O)N[C@@H]([C@@H](C)O)C(=O)N[C@@H](C)C(=O)N[C@@H](CO)C(=O)N[C@@H](CC1CCCCC1)C(=O)N1CCC[C@H]1C(=O)N1CCC[C@H]1C(=O)N[C@@H](CCC(N)=O)C(=O)N2` [compound 164] (HELM PEPTIDE1{[Nle].C.T.A.S.[Cha].P.P.Q.C.Q.[dP].Q}$PEPTIDE1,PEPTIDE1,2:R3-10:R3|PEPTIDE1,PEPTIDE1,1:R1-13:R2$$$V2.0): 0.024 µM; for `CCCCCCCC[C@@H]1NC(=O)[C@H](CCC(N)=O)NC(=O)[C@H]2CCCN2C(=O)[C@H](CCC(N)=O)NC(=O)[C@@H]2CSSC[C@H](NC1=O)C(=O)N[C@@H]([C@@H](C)O)C(=O)N[C@@H](C)C(=O)N[C@@H](CO)C(=O)N[C@@H](CCCCCCCC)C(=O)N1CCC[C@H]1C(=O)N1CCC[C@H]1C(=O)N[C@@H](CCC(N)=O)C(=O)N2` [compound 178] (HELM PEPTIDE1{[CCCCCCCC[C@H](N[*:1])C(=O)[*:2]].C.T.A.S.[CCCCCCCC[C@H](N[*:1])C(=O)[*:2]].P.P.Q.C.Q.[dP].Q}$PEPTIDE1,PEPTIDE1,2:R3-10:R3|PEPTIDE1,PEPTIDE1,1:R1-13:R2$$$V2.0): 0.006 µM. `CCCC[C@@H]1NC(=O)[C@@H]2CCCN2C(=O)[C@H]2CCCN2C(=O)[C@H](Cc2ccc(O)cc2)NC(=O)[C@H](CCSC)NC(=O)[C@H](CCC(N)=O)NC(=O)[C@@H]2CCCN2C(=O)[C@@H]2CCCN2C(=O)[C@H]([C@@H](C)CC)NC(=O)[C@H](CO)NC(=O)[C@H](C)NC(=O)[C@H]([C@@H](C)O)NC(=O)[C@H]([C@@H](C)O)NC1=O` [Ex. 108] (HELM PEPTIDE1{[Nle].T.T.A.S.I.P.P.Q.M.Y.[dP].P}$PEPTIDE1,PEPTIDE1,1:R1-13:R2$$$V2.0): half-maximal inhibition (IC50) required 0.031 µM. The same measure for `CCCC[C@@H]1NC(=O)[C@H](CCC(N)=O)NC(=O)[C@H]2CCCN2C(=O)[C@H](Cc2ccc(O)cc2)NC(=O)[C@@H]2CSSC[C@H](NC1=O)C(=O)N[C@@H]([C@@H](C)O)C(=O)N[C@@H](C)C(=O)N[C@@H](CO)C(=O)N[C@@H](CC1CCCCC1)C(=O)N1CCC[C@H]1C(=O)N1CCC[C@H]1C(=O)N[C@@H](CCC(N)=O)C(=O)N2` [compound 170] (HELM PEPTIDE1{[Nle].C.T.A.S.[Cha].P.P.Q.C.Y.[dP].Q}$PEPTIDE1,PEPTIDE1,2:R3-10:R3|PEPTIDE1,PEPTIDE1,1:R1-13:R2$$$V2.0): 0.016 µM; for `CCCC[C@@H]1NC(=O)[C@@H]2CCCN2C(=O)[C@H]2CCCN2C(=O)[C@H](Cc2ccc(O)cc2)NC(=O)[C@H](CCCCN)NC(=O)[C@H](CCC(N)=O)NC(=O)[C@@H]2CCCN2C(=O)[C@@H]2CCCN2C(=O)[C@H]([C@@H](C)CC)NC(=O)[C@H](CO)NC(=O)[C@H](C)NC(=O)[C@H]([C@@H](C)O)NC(=O)[C@H]([C@@H](C)O)NC1=O` [Ex. 106] (HELM PEPTIDE1{[Nle].T.T.A.S.I.P.P.Q.K.Y.[dP].P}$PEPTIDE1,PEPTIDE1,1:R1-13:R2$$$V2.0): 0.049 µM. For `CCCCCCCC[C@@H]1NC(=O)[C@H](CCC(=O)O)NC(=O)[C@@H](CCCCN)NC(=O)[C@H](Cc2ccc(O)cc2)NC(=O)[C@@H]2CSSC[C@H](NC1=O)C(=O)N[C@@H]([C@@H](C)O)C(=O)N[C@@H](C)C(=O)N[C@@H](CO)C(=O)N[C@@H]([C@@H](C)CC)C(=O)N1CCC[C@H]1C(=O)N1CCC[C@H]1C(=O)N[C@@H](CCC(N)=O)C(=O)N2` [compound 165] (HELM PEPTIDE1{[CCCCCCCC[C@H](N[*:1])C(=O)[*:2]].C.T.A.S.I.P.P.Q.C.Y.[dK].E}$PEPTIDE1,PEPTIDE1,2:R3-10:R3|PEPTIDE1,PEPTIDE1,1:R1-13:R2$$$V2.0) the value was 0.022 µM. For `CCCCCCCC[C@@H]1NC(=O)[C@H](CO)NC(=O)[C@H](C)NC(=O)[C@H]([C@@H](C)O)NC(=O)[C@H]([C@@H](C)O)NC(=O)[C@H](CCCC)NC(=O)[C@@H]2CCCN2C(=O)[C@H]2CCCN2C(=O)[C@H](Cc2ccc(O)cc2)NC(=O)[C@H](CCC(N)=O)NC(=O)[C@H](CCC(N)=O)NC(=O)[C@@H]2CCCN2C(=O)[C@@H]2CCCN2C1=O` [Ex. 135] (HELM PEPTIDE1{[Nle].T.T.A.S.[CCCCCCCC[C@H](N[*:1])C(=O)[*:2]].P.P.Q.Q.Y.[dP].P}$PEPTIDE1,PEPTIDE1,1:R1-13:R2$$$V2.0) the value was 0.023 µM; for `CC[C@H](C)[C@@H]1NC(=O)[C@H](CO)NC(=O)[C@H](C)NC(=O)[C@H]([C@@H](C)O)NC(=O)[C@H](CCC(=O)O)NC(=O)[C@H](CCc2ccccc2)NC(=O)[C@@H]2CCCN2C(=O)[C@H]2CCCN2C(=O)[C@H](Cc2ccc(O)cc2)NC(=O)[C@H](CCCCN)NC(=O)[C@H](CCC(N)=O)NC(=O)[C@@H]2CCCN2C(=O)[C@@H]2CCCN2C1=O` [Ex. 132] (HELM PEPTIDE1{[O=C([C@H](CCc1ccccc1)N[*:1])[*:2]].E.T.A.S.I.P.P.Q.K.Y.[dP].P}$PEPTIDE1,PEPTIDE1,1:R1-13:R2$$$V2.0), 0.026 µM. As for `CCCC[C@@H]1NC(=O)[C@@H]2CCCN2C(=O)[C@H]2CCCN2C(=O)[C@H](Cc2ccc(O)cc2)NC(=O)[C@H](CO)NC(=O)[C@H](CCC(N)=O)NC(=O)[C@@H]2CCCN2C(=O)[C@@H]2CCCN2C(=O)[C@H]([C@@H](C)CC)NC(=O)[C@H](CO)NC(=O)[C@H](C)NC(=O)[C@H]([C@@H](C)O)NC(=O)[C@H](CCC(N)=O)NC1=O` [Ex. 111] (HELM PEPTIDE1{[Nle].Q.T.A.S.I.P.P.Q.S.Y.[dP].P}$PEPTIDE1,PEPTIDE1,1:R1-13:R2$$$V2.0), half-maximal inhibition (IC50) was put at 0.046 µM. The same measure for `CCCC[C@@H]1NC(=O)[C@H]([C@@H](C)O)NC(=O)[C@@H](Cc2ccccc2)NC(=O)[C@H](Cc2ccc(O)cc2)NC(=O)[C@@H]2CSSC[C@H](NC1=O)C(=O)N[C@@H]([C@@H](C)O)C(=O)N[C@@H](C)C(=O)N[C@@H](CO)C(=O)N[C@@H]([C@@H](C)CC)C(=O)N1CCC[C@H]1C(=O)N1CCC[C@H]1C(=O)N[C@@H](CCC(N)=O)C(=O)N2` [Ex. 128] (HELM PEPTIDE1{A.S.I.P.P.Q.C.Y.[dF].T.[Nle].C.T}$PEPTIDE1,PEPTIDE1,7:R3-12:R3|PEPTIDE1,PEPTIDE1,1:R1-13:R2$$$V2.0): 0.04 µM; for `C[C@@H]1NC(=O)[C@H]([C@@H](C)O)NC(=O)[C@@H]2CSSC[C@H](NC(=O)[C@H](CCC(N)=O)NC(=O)[C@@H]3CCCN3C(=O)[C@@H]3CCCN3C(=O)[C@H](CC3CCCCC3)NC(=O)[C@H](CO)NC1=O)C(=O)N[C@@H](Cc1ccc(O)cc1)C(=O)N1CCC[C@@H]1C(=O)N1CCC[C@H]1C(=O)N[C@@H](CCc1ccccc1)C(=O)N2` [Ex. 162] (HELM PEPTIDE1{[O=C([C@H](CCc1ccccc1)N[*:1])[*:2]].C.T.A.S.[Cha].P.P.Q.C.Y.[dP].P}$PEPTIDE1,PEPTIDE1,2:R3-10:R3|PEPTIDE1,PEPTIDE1,1:R1-13:R2$$$V2.0): 0.0125 µM. The same measure for `CC[C@H](C)[C@@H]1NC(=O)[C@H](CO)NC(=O)[C@H](C)NC(=O)[C@H]([C@@H](C)O)NC(=O)[C@@H]2CSSC[C@H](NC(=O)[C@H](CCC(N)=O)NC(=O)[C@@H]3CCCN3C(=O)[C@@H]3CCCN3C1=O)C(=O)N[C@@H](Cc1ccc(O)cc1)C(=O)N1CCC[C@@H]1C(=O)N1CCC[C@H]1C(=O)N[C@@H](C1CCCCC1)C(=O)N2` [Ex. 101] (HELM PEPTIDE1{[O=C([C@@H](N[*:1])C1CCCCC1)[*:2]].C.T.A.S.I.P.P.Q.C.Y.[dP].P}$PEPTIDE1,PEPTIDE1,2:R3-10:R3|PEPTIDE1,PEPTIDE1,1:R1-13:R2$$$V2.0): 0.049 µM.
